According to patent US5250570A, “Amidobenzene derivatives, compositions and use” (Imperial Chemical Industries PLC, priority 1990, dated 1993):

How the values were obtained:
aldose reductase [1] = target: T1, aldose reductase (Bos taurus, UniProt P16116); assay: In vitro inhibition of partially purified bovine lens aldose reductase (spectrophotometric); format: biochemical; conditions: partially purified aldose reductase from bovine lenses
T1 construct: partially purified aldose reductase is isolated in known manner from bovine lenses; from tissue; host or cells: bovine lens
From the text: Thus, in a standard procedure partially purified aldose reductase is isolated in known manner from bovine lenses. The percentage inhibition of this enzyme's ability in vitro to catalyse the reduction of aldoses to polyhydric alcohols, and particularly to reduce glucose to sorbitol, caused by a test compound can then be determined using standard spectrophotometric methods.

aldose reductase [2] = assay: Reduction of sciatic nerve sorbitol levels in streptozotocin-diabetic rats (inhibition of aldose reductase in vivo); parameters: species or system rat; conditions: 5 daily oral doses of 3 mg/kg
Protocol: Rats are made diabetic (as evidenced by severe glucosuria being present) by dosing with streptozotocin. The animals are then dosed daily with the test compound for one, two or five days. The animals are then sacrificed 2-6 hours after the final dose and the eye lenses and/or sciatic nerves are removed. After a standard work-up procedure the residual sorbitol levels in each tissue are determined by gas liquid chromatography after conversion to the polytrimethylsilyl derivatives. Inhibition of aldose reductase in vivo can then be assessed by comparing the residual sorbitol levels in tissues from the dosed diabetic group of rats with those of an undosed group of diabetic rats and an undosed group of normal rats.
In a variation of the above test diabetic rats are dosed at a fixed daily oral dose for five days and then sacrificed 6 hours after the final dose and the reduction of sciatic nerve sorbitol assessed relative to that in control animals.

**Q.** For `Cc1cc(NC(=O)COc2ccccc2)cc(C)c1S(=O)(=O)C[N+](=O)[O-]` [Example 1, (2,6-dimethyl-4-[2-phenoxyacetamido]phenylsulfonyl)nitromethane], which IC50 (aldose reductase [1]) is on record?
**A.** 44 nM

**Q.** What about the “reduction in sciatic nerve sorbitol levels” value (aldose reductase [2]) of the same molecule?
**A.** 78%
